Measured values taken from patent US20240197650A1, “Combination of Cinnamaldheyde and Eugenol with Antimycotic Activity” (priority 2021, published 2024).

Columns and labels:
C. albicans = test: Microdilution method MIC/MFC, C. albicans strains; format: cell-based
Procedure: (§1) A total of eighteen strains belonging to Candida spp. (15 C. albicans, 2 C. glabrata and 1 C. lusitaniae) derived from a collection of vaginal strains isolated in CHROMAgar Candida (BD Italia SpA, Milan, Italy) were grown on Potato Dextrose Agar (Oxoid Thermofisher SpA, Milan, Italy) at 35° C. for 24 hours.
(§2) The antifungal activity of amphotericin B and of cinnamaldheyde and eugenol were tested with the microdilution method as reported by Bona et al. [Bona et al., Sensitivity of Candida albicans to essential oils: are they an alternative to antifungal agents? J Appl Microbiol. 2016 December, 121(6): 1530-1545] with small changes. All the 18 Candida spp strains were tested. For each isolated, the colonies deriving from cultures (24 hours) in PDA were diluted in saline up to a concentration of 2×10^3 CFU/ml (so obtaining a final concentration of 10 3CGU/ml). Cinnamaldehyde and eugenol were dissolved in DMSO (80% oil, 20% DMSO), then diluted in Sabouraud broth up to a concentration of 8% v/v (so obtaining a final concentration of 4% v/v). Then, in a 96-well microtiter plate ½ serial dilution of amphotericin B (range 32-0.032 μg/ml, for a final range of 16-0.016 μg/ml) and of the essential oils (range 8-0.004% v/v, for a final range of 4-0.002% v/v) were carried out. Each well was then injected with 100 μl of cell suspension. The negative control contained DMSO diluted in Sabouraud broth (at 2% v/v, for a final concentration of 1% v/v). […] Each experiment was carried out in duplicate. The Minimum Inhibitory Concentration (MIC) was determined as the concentration of the oils in the first well which is not cloudy. The Minimum Fungicidal Concentration (MFC) was determined as the lowest concentration of the oils, with the agar culture showing the complete absence of fungal growth. The determination of the amphotericin B MIC was carried out also according to the EUCAST guidelines (cutoff 1 μg/ml) [https://eucast.org/astoffungi/clinicalbreakpointsforantifungals], all the results being consistent.

C. lusitaniae = test: Disk diffusion method, C. lusitaniae strain; format: cell-based; conditions: C. lusitaniae 1
Procedure: as §1
Colonies were re-suspended in sterile saline at a density corresponding to #0.5 McFarland (opacity standard). #0.5 McF correspond to 1.4×10^6 colony forming units (CFU)/ml for C. albicans, 4.3×10^6 CFU/ml for C. glabrata and 3×10^6 CFU/ml for C. lusitaniae [Guinea J. et al., Rapid antifungal susceptibility determination for yeast isolates by use of Etest performed directly on blood samples from patients with fungemia, J Clin Microbiol. 2010 June, 48(6): 2205-12]. Then, the sensitivity test vs the two oils has been performed. The disk diffusion method was carried out as follows: for each tested strain, 4 plates of Potato Dextrose Agar (PDA) were seeded in 3 directions to produce a confluent growth, by sterile swab soaked in the cell suspension. Sorbent paper disks (Oxoid Thermofisher SpA, Milan, Italy) 6.0 mm diameter were placed on the agar surface and added with 10 μl of each essential oil. Disks soaked with 10 μg amphotericin B were used as positive control. Also disks of chlortrimazole (from 10 μg to 40 μg) were used, but the inhibition rings could not be clearly read due to the formation of a re-growth ring. Disks soaked with 10 μl pure dimethylsulphoxide (DMSO, Sigma-Aldrich, St. Louis, MO, USA) were used as negative control. The plates were incubated at 35° C. for 24 hours. All the experiments were carried out in duplicate. […]

Candida spp. = test: Microdilution method MIC/MFC, 18 Candida spp. strains (distribution); format: cell-based; conditions: 18 strains
Procedure: as §1, §2

[1] = system: L. acidophilus strain La-14; test: Disk diffusion vs L. acidophilus; format: cell-based, Lactobacillus acidophilus; conditions: 10 μl oil per disk; MRS agar, 37° C. 24 hours, anaerobiosis
Procedure: The antibacterial activity of cinnamaldheyde and eugenol vs L. acidophilus was studied by using the disk diffusion method (reading scheme as reported in FIG. 1) and the microdilution method (reading scheme as reported in FIG. 2). A L. acidophilus strain named La-14 (Danisco SpA, Milan, Italy) was tested.
Colonies deriving from a 24-hour culture in DeManRogosaSharpe agar (MRS, OXOID SpA, Milan, Italy) were suspended in saline up to a concentration corresponding to #0.5 McFarland. A total of 3 plates of MRS agar were seeded in 3 directions to produce a confluent growth, by sterile swab soaked in the bacterial suspension. Sorbent paper disks 6.0 mm diameter were placed on each plate and soaked with 10 μl of each oil. Disks soaked with […] pure DMSO were used as negative control. The plates were incubated at 37° C. for 24 hours in anaerobiosis (anaerogen gaspack, OXOID SpA, Milan, Italy). The experiment was carried out in duplicate.

Compound	MFC (C. albicans; C. albicans 1) [% v/v]	MIC (C. albicans; C. albicans 1) [% v/v]	MFC (C. albicans; C. albicans 2) [% v/v]	MIC (C. albicans; C. albicans 2) [% v/v]	MFC (C. albicans; C. albicans 3) [% v/v]	MIC (C. albicans; C. albicans 3) [% v/v]	MFC (C. albicans; C. albicans 4) [% v/v]	MIC (C. albicans; C. albicans 4) [% v/v]	MFC (C. albicans; C. albicans 5) [% v/v]	MIC (C. albicans; C. albicans 5) [% v/v]	MFC (C. albicans; C. albicans 6) [% v/v]	MIC (C. albicans; C. albicans 6) [% v/v]	MFC (C. albicans; C. albicans 7) [% v/v]	MIC (C. albicans; C. albicans 7) [% v/v]	MFC (C. albicans; C. albicans 8) [% v/v]	MIC (C. albicans; C. albicans 8) [% v/v]	MFC (C. albicans; C. albicans 9) [% v/v]	MIC (C. albicans; C. albicans 9) [% v/v]	MFC (C. albicans; C. albicans 10) [% v/v]	MIC (C. albicans; C. albicans 10) [% v/v]	further results
C=CCc1ccc(O)c(OC)c1 [Eugenol, eugenol]	0.032	0.032	0.032	0.032	0.032	0.016	0.064	0.064	0.032	0.008	0.032	0.032	0.064	0.032	0.032	0.032	0.125	0.125	0.016	0.016	MFC (C. albicans; C. albicans 11): 0.125 % v/v; MIC (C. albicans; C. albicans 11): 0.064 % v/v; MFC (C. albicans; C. albicans 12): 0.064 % v/v; MIC (C. albicans; C. albicans 12): 0.016 % v/v; MFC (C. albicans; C. albicans 13): 0.125 % v/v; MIC (C. albicans; C. albicans 13): 0.064 % v/v; MFC (C. albicans; C. albicans 14): 0.125 % v/v; MIC (C. albicans; C. albicans 14): 0.032 % v/v; MFC (C. albicans; C. albicans 15): 0.064 % v/v; MIC (C. albicans; C. albicans 15): 0.032 % v/v; Diameters of the inhibition rings (including 6.0 mm of the disk) (C. lusitaniae): 43.0 mm; MFC average (Candida spp.): 0.067 % v/v; MIC average (Candida spp.): 0.043 % v/v; inhibition ring diameter [1]: did not produced any inhibition ring
O=CC=Cc1ccccc1 [Cinnamaldheyde, cinnamaldehyde]	0.008	0.004	0.008	0.004	0.004	0.004	0.008	≤0.002	0.004	0.004	0.008	0.004	0.008	≤0.002	0.008	0.004	0.064	0.016	≤0.002	≤0.002	MFC (C. albicans; C. albicans 11): ≤0.002 % v/v; MIC (C. albicans; C. albicans 11): ≤0.002 % v/v; MFC (C. albicans; C. albicans 12): ≤0.002 % v/v; MIC (C. albicans; C. albicans 12): ≤0.002 % v/v; MFC (C. albicans; C. albicans 13): 0.016 % v/v; MIC (C. albicans; C. albicans 13): 0.008 % v/v; MFC (C. albicans; C. albicans 14): 0.016 % v/v; MIC (C. albicans; C. albicans 14): 0.004 % v/v; MFC (C. albicans; C. albicans 15): 0.008 % v/v; MIC (C. albicans; C. albicans 15): 0.004 % v/v; Diameters of the inhibition rings (including 6.0 mm of the disk) (C. lusitaniae): 75.0 mm; MFC average (Candida spp.): 0.01 % v/v; MIC average (Candida spp.): 0.0048 % v/v; inhibition ring diameter [1]: 10 mm
